Measurements published in patent US5916785A, “Process of oxidizing alcohols or carboxylic acids with alcohol/aldehyde dehydrogenase from gluconobacter” (Roche Vitamins Inc., priority 1992, dated 1999).

Legend:
[1] = system: AADH; experiment: Effect of metal ions on the enzyme activity; assay type: biochemical, Gluconobacter oxydans DSM No. 4025; details: standard DCIP/PMS assay
Source text: Using the assay procedure described under section 1), the effect of various metal ions on the enzyme activity was examined. […] The others affected the enzyme activity strongly or moderately.

[2] = system: AADH; experiment: Effect of inhibitors on the enzyme activity; assay type: biochemical, Gluconobacter oxydans DSM No. 4025; details: standard DCIP/PMS assay
[3] = system: AADH; details: substrate used instead of L-sorbose
Method: The enzyme assay was performed at 25° C. by measuring the decrease of absorbance at 600 nm of DCIP with a spectrophotometer (UVIKON 810, Kontron K.K.). One unit of the enzyme activity was defined as the amount of the enzyme which catalyzed the reduction of 1 μmole of DCIP per minute. The extinction coefficient of DCIP at pH 8.0 was taken as 15 mMol^-1. The standard reaction mixture (1.0 ml) contained 0.1 mMol DCIP, 1 mMol PMS, 125 mMol L-sorbose, 50 mMol Tris-malate-NaOH buffer (pH 8.0), and 3-8 μl of the enzyme solution. A reference cuvette contained all the above components except the substrate.
The substrate specificity of AADH was determined using the same enzyme assay method as described under section 1) above, except that various further substrates were used instead of L-sorbose.

[4] = system: AADH; experiment: Measurement of the Km (Michaelis constant) values, DCIP/PMS enzyme assay; assay type: biochemical, Gluconobacter oxydans DSM No. 4025; details: mixture of DCIP and PMS as electron acceptors; 25° C., pH 8.0; read-out: apparent Michaelis constant (Km)

Compound	effect of metal ions on the AADH enzyme activity [1]	further results
[Fe+3] [Fe^3+]	strong inhibitors	–
[Ca+2] [Ca^2+]	did not affect	–
[Cu+2] [Cu^2+]	strong inhibitors	–
[Mg+2] [Mg^2+]	did not affect	–
O=C(O)CN(CCN(CC(=O)O)CC(=O)O)CC(=O)O [EDTA, Ethylenediamine tetraacetic acid]	–	effect of inhibitors on the AADH enzyme activity [2]: strongly inhibited
CCO [ethanol]	–	oxidation as substrate by AADH [3]: good substrate
[Mn+2] [Mn^2+]	strong inhibitors	–
CCCO [1-propanol]	–	Km [4]: 2000 µM
CO [methanol]	–	oxidation as substrate by AADH [3]: hardly oxidizes
O=C(O)CN(CCOCCOCCN(CC(=O)O)CC(=O)O)CC(=O)O [EGTA, ethylene glycol bis(beta-aminoethylether)-N,N,N',N'-tetraacetic acid]	–	effect of inhibitors on the AADH enzyme activity [2]: strongly inhibited
